According to US20020035061A1, “COMPOSITIONS AND METHODS FOR TREATING INFECTIONS USING CATIONIC PEPTIDES ALONE OR IN COMBINATION WITH ANTIBIOTICS” (priority 1996, published 2002):
Where “and” joins values, the source holds several entries; their conditions need not be identical. Equal values may be shown once.

Columns and labels:
Experiment in all cases: microbe, parasite or virus in culture
Assay type in all cases: cell-based
[1] = tested on: inherently resistant microorganisms
[2] = tested on: microorganisms with acquired resistance; settings: for Peptide MIC Alone: Tobramycin section; for FIC: peptide + Tobramycin
[3] = tested on: bacterial isolates; settings: for FIC: peptide + Tobramycin
[4] = S. maltophilia (strain code stands in r800, not shown)

With Gentamicin the “Gentamicin MIC Alone” value ([1]; S. aureus MRSA) was 32 µg/mL, the “Gentamicin MIC + Peptide” value ([1]; S. aureus MRSA, peptide MBI 11B16CN) was 1 µg/mL and the “Gentamicin MIC Alone” value ([2]; A. baumannii ABI002) was 16 µg/mL and 32 µg/mL. For the same substance, the “Gentamicin MIC Alone” value ([2]; A. calcoaceticus AC001) was 8 µg/mL, the “Gentamicin MIC Alone” value ([2]; P. aeruginosa PA022) was 32 µg/mL and the “Gentamicin MIC Alone” value ([2]; P. aeruginosa PA023) was 8 µg/mL and 16 µg/mL. The “Gentamicin MIC Alone” value ([2]; P. aeruginosa PA041) was 8 µg/mL and 16 µg/mL, the “Gentamicin MIC Alone” value ([3]; A. calcoaceticus AC001) was 8 µg/mL and the “Gentamicin MIC Alone” value ([3]; E. faecalis EFS008) was >128 µg/mL and 128 µg/mL. For the same substance, the “Gentamicin MIC Alone” value ([3]; E. faecium EFM004) was greater than 128 µg/mL, the “Gentamicin MIC Alone” value ([3]; P. aeruginosa PA022) was 32 µg/mL and 16 µg/mL and the “Gentamicin MIC Alone” value ([3]; P. aeruginosa PA023) was 8 µg/mL. The “Gentamicin MIC Alone” value ([3]; P. aeruginosa PA041) was 8 µg/mL and 16 µg/mL, the “Gentamicin MIC Alone” value ([3]; S. aureus SA014 MRSA) was 32 µg/mL and the “Gentamicin MIC Alone” value ([3]; S. epidermidis SE071) was 16 µg/mL. The “Gentamicin MIC Alone” value ([3]; S. epidermidis SE074) was 128 µg/mL, the “Gentamicin MIC Alone” value ([3]; S. maltophilia (strain line r400 not shown)) was 128 µg/mL and the “Gentamicin MIC Alone” value ([3]; S. maltophilia SMA016) was >128 µg/mL and 128 µg/mL. For the same substance, the “Gentamicin MIC Alone” value ([3]; S. maltophilia SMA017) was 128 µg/mL.

With KKWWRRALQALKNGLPALIS [MBI 22A1] the “Peptide MIC + Tobramycin” value ([1]; S. aureus) was 2 µg/mL, the “Peptide MIC Alone” value ([1]; S. aureus, Tobramycin section) was 8 µg/mL and the FIC ([1]; peptide + Tobramycin, S. aureus) was 0.27. For the same substance, the “Peptide MIC + Tobramycin” value ([2]; A. baumannii ABI001) was 2 µg/mL, the “Tobramycin MIC + Peptide” value ([2]; A. baumannii ABI001) was 4 µg/mL and the “Peptide MIC Alone” value ([2]; A. baumannii ABI001) was 4 µg/mL. For the same substance, the “Peptide MIC + Tobramycin” value ([2]; S. epidermidis SE072) was 8 µg/mL, the “Tobramycin MIC + Peptide” value ([2]; S. epidermidis SE072) was 0.125 µg/mL and the “Peptide MIC Alone” value ([2]; S. epidermidis SE072) was 16 µg/mL. The “Peptide MIC + Tobramycin” value ([2]; S. epidermidis SE073) was 8 µg/mL, the “Tobramycin MIC + Peptide” value ([2]; S. epidermidis SE073) was 0.125 µg/mL and the “Peptide MIC Alone” value ([2]; S. epidermidis SE073) was 16 µg/mL. For the same substance, the “Peptide MIC + Tobramycin” value ([2]; S. maltophilia SMA029) was 8 µg/mL and 16 µg/mL, the “Peptide MIC Alone” value ([2]; S. maltophilia SMA029) was 16 µg/mL and 32 µg/mL and the FIC ([2]; A. baumannii ABI001) was 0.75. For the same substance, the FIC ([2]; S. epidermidis SE072) was 0.50, the FIC ([2]; S. epidermidis SE073) was 0.50 and the FIC ([2]; S. maltophilia SMA029) was 0.51 and 0.50. The “Peptide MIC + Tobramycin” value ([3]; S. aureus SA014 MRSA) was 2 µg/mL, the “Peptide MIC Alone” value ([3]; S. aureus SA014 MRSA) was 8 µg/mL and the “Tobramycin MIC + Peptide” value ([3]; S. aureus SA014 MRSA) was 4 µg/mL. For the same substance, the “Peptide MIC + Tobramycin” value ([3]; S. epidermidis SE072) was 8 µg/mL, the “Peptide MIC Alone” value ([3]; S. epidermidis SE072) was 16 µg/mL and the “Tobramycin MIC + Peptide” value ([3]; S. epidermidis SE072) was 0.125 µg/mL. For the same substance, the “Peptide MIC + Tobramycin” value ([3]; S. epidermidis SE073) was 8 µg/mL, the “Peptide MIC Alone” value ([3]; S. epidermidis SE073) was 16 µg/mL and the “Tobramycin MIC + Peptide” value ([3]; S. epidermidis SE073) was 0.125 µg/mL. The “Peptide MIC + Tobramycin” value ([3]; S. epidermidis SE080) was 0.125 µg/mL, the “Peptide MIC Alone” value ([3]; S. epidermidis SE080) was 2 µg/mL and the “Tobramycin MIC + Peptide” value ([3]; S. epidermidis SE080) was 16 µg/mL. The “Peptide MIC + Tobramycin” value [3, 4] was 8 µg/mL, the “Tobramycin MIC + Peptide” value [3, 4] was 0.5 µg/mL and the “Peptide MIC Alone” value ([3]; S. maltophilia (strain code stands in r800, not shown), Tobramycin section) was 32 µg/mL. The “Peptide MIC + Tobramycin” value ([3]; S. maltophilia SMA030) was 8 µg/mL, the “Tobramycin MIC + Peptide” value ([3]; S. maltophilia SMA030) was 1 µg/mL and the “Peptide MIC Alone” value ([3]; S. maltophilia SMA030, Tobramycin section) was 32 µg/mL. For the same substance, the FIC ([3]; S. aureus SA014 MRSA) was 0.27, the FIC ([3]; S. epidermidis SE072) was 0.50 and the FIC ([3]; S. epidermidis SE073) was 0.50. It also gave an FIC ([3]; S. epidermidis SE080) of 0.56, an FIC [3, 4] of 0.25 and an FIC ([3]; S. maltophilia SMA030) of 0.26.
